Source: ChEMBL document CHEMBL4190181 (Medchemcomm, 2016)

How the values were obtained:
[1] = organism: Rattus norvegicus; assay: Positive allosteric modulation of AMPAR in Sprague-Dawley rat primary culture of cerebellar neurons assessed as potentiation of kainate-induced current at 10 uM by whole-cell patch clamp electrophysiological method relative to control
[2] = Drug level in rat liver microsomes treated with (+/-)-7-Chloro-5-(3-furanyl)-3-methyl-3,4-dihydro-2H-1,2,4-benzothiadiazine 1,1-dioxide assessed as CYP450-mediated metabolite formation at 10 uM after 60 mins by LC-MS/MS analysis; format: ADME; conditions: 1 h
[3] = Half life of the compound in pH 7.4 buffer assessed as compound racemization; format: physicochemical

Row | Structure (SMILES) | Activity [1] | Drug metabolism [2] | half-life [3]
1 | C[C@H]1Nc2c(-c3ccoc3)cc(Cl)cc2S(=O)(=O)N1 | 488% | Metabolite_Detected | 
2 | CC1Nc2ccc(Cl)cc2S(=O)(=O)N1 (configuration not stated) | 8% |  | 
3 | C[C@@H]1Nc2c(-c3ccoc3)cc(Cl)cc2S(=O)(=O)N1 | 2590% | Metabolite_Detected | 
4 | CC1Nc2c(-c3ccoc3)cc(Cl)cc2S(=O)(=O)N1 (racemic) | 1600% |  | 1 h
